Reference: patent publication US20250213523A1, “COMBINATION OF HDAC INHIBITORS AND STATINS FOR USE IN THE TREATMENT OF PANCREATIC CANCER” (ISTITUTO NAZIONALE TUMORI IRCCS - FONDAZIONE G. PASCALE, priority 2022, published 2025)

Key:
[1] = test system: COLO357; assay: Cell proliferation assay (Sulforhodamine B), IC50; format: cell-based; conditions: Homo sapiens; COLO357, 96 hours of treatment; read-out: IC50 96 h mean ± SD
Description: (§1) Cell proliferation was measured in 96-well plates in cells untreated and treated with described drugs as single agent or in combination. […] Drugs combination studies were based on concentration-effect curves generated as a plot of the fraction of unaffected (surviving) cells versus drug concentration after 96 h of treatment. Synergism, additivity, and antagonism were quantified after an evaluation of the Combination Index (CI), which was calculated by the Chou-Talalay equation with CalcuSyn software (Biosoft, Cambridge, UK-Chou T C. Cancer Res. 2010 Jan. 15; 70(2):440-6.), as described elsewhere (Terranova-Barberio M, J Exp Clin Cancer Res. 2017; 36(1):177); Bruzzese et al, J Cell Physiol 2011, 226(9):2378-2390). […] The DRI determined the magnitude of dose reduction allowed for each drug when given in combination, compared with the concentration of a single agent that is needed to achieve the same effect. Clonogenic assay Colony formation assay is an in vitro cell survival assay based on the ability of a single cell to grow into a colony. The PANC1, ASPC1 and PANC28 cell lines were plated in 96 well plates with 50 cell/well while the BxPC3 cell line with 100 cell/well. […] The cells were grown for 10 days. The formed colonies were fixed with TCA (50%) and measured using a spectrophotometric dye incorporation assay (Sulforhodamine B or crystal violet). Microtissue formation assay Pancreatic cancer cell lines PANC1, ASPC1, PANC28, BxPC3 and MiaPaca were cultured as microtissues by the ultra-low attachment (ULA) System (PerkinElmer). The cancer cells were marked using a green fluorescent probe-cell traker (Thermo Fisher) while fibroblast (only for preliminary experiment to evaluate tissues formation) with red probe (PKH-26 Sigma Aldrich) according to manufacture instruction. […] 3D microtissues were maintained in the incubator and photographed by Opera Phenix microscope (Perkin Elmer) air objective magnification 5× and/or scored by Cell Titer-Glo® 3D Cell Viability Assay (Promega) by using a Multimode Reader Cytation 5 (Biotek).

[2] = test system: MIAPACA; assay: Cell proliferation assay (Sulforhodamine B), IC50; format: cell-based; conditions: Homo sapiens, MIA PaCa-2, 96 hours of treatment, read-out: IC50 96 h mean ± SD
Description: as §1

[3] = test system: MDA-PANC28; assay: Cell proliferation assay (Sulforhodamine B), IC50; format: cell-based; conditions: Homo sapiens, MDA-Panc-28; MDA-PANC28, 96 hours of treatment; read-out: IC50 96 h mean ± SD
Description: as §1

[4] = test system: BxPC3; assay: Cell proliferation assay (Sulforhodamine B), IC50; format: cell-based; conditions: Homo sapiens, BXPC-3; BxPC3, 96 hours of treatment; read-out: IC50 96 h mean ± SD
Description: as §1

[5] = test system: L3.6pl; assay: Cell proliferation assay (Sulforhodamine B), IC50; format: cell-based; conditions: Homo sapiens, 96 hours of treatment, read-out: IC50 96 h mean ± SD
Description: as §1

[6] = test system: PANC1; assay: Cell proliferation assay (Sulforhodamine B), IC50; format: cell-based; conditions: Homo sapiens, PANC-1; PANC1, 96 hours of treatment; read-out: IC50 96 h mean ± SD
Description: (§2) Cell proliferation was measured in 96-well plates in cells untreated and treated with described drugs as single agent or in combination. […] Drugs combination studies were based on concentration-effect curves generated as a plot of the fraction of unaffected (surviving) cells versus drug concentration after 96 h of treatment. Synergism, additivity, and antagonism were quantified after an evaluation of the Combination Index (CI), which was calculated by the Chou-Talalay equation with CalcuSyn software (Biosoft, Cambridge, UK-Chou T C. Cancer Res. 2010 Jan. 15; 70(2):440-6.), as described elsewhere (Terranova-Barberio M, J Exp Clin Cancer Res. 2017; 36(1):177); Bruzzese et al, J Cell Physiol 2011, 226(9):2378-2390). […] The DRI determined the magnitude of dose reduction allowed for each drug when given in combination, compared with the concentration of a single agent that is needed to achieve the same effect. Clonogenic assay Colony formation assay is an in vitro cell survival assay based on the ability of a single cell to grow into a colony. The PANC1, ASPC1 and PANC28 cell lines were plated in 96 well plates with 50 cell/well while the BxPC3 cell line with 100 cell/well. The day after the cells were treated with VPA, SIM alone (at dose of IC10, IC25 and IC50) and in combination. The cells were grown for 10 days. The formed colonies were fixed with TCA (50%) and measured using a spectrophotometric dye incorporation assay (Sulforhodamine B or crystal violet). Microtissue formation assay Pancreatic cancer cell lines PANC1, ASPC1, PANC28, BxPC3 and MiaPaca were cultured as microtissues by the ultra-low attachment (ULA) System (PerkinElmer). The cancer cells were marked using a green fluorescent probe-cell traker (Thermo Fisher) while fibroblast (only for preliminary experiment to evaluate tissues formation) with red probe (PKH-26 Sigma Aldrich) according to manufacture instruction. […] 3D microtissues were maintained in the incubator and photographed by Opera Phenix microscope (Perkin Elmer) air objective magnification 5× and/or scored by Cell Titer-Glo® 3D Cell Viability Assay (Promega) by using a Multimode Reader Cytation 5 (Biotek).

[7] = test system: ASPC1; assay: Cell proliferation assay (Sulforhodamine B), IC50; format: cell-based; conditions: Homo sapiens; ASPC1, 96 hours of treatment; read-out: IC50 96 h mean ± SD
Description: as §2

[8] = test system: KPC ID95; assay: Cell proliferation assay (Sulforhodamine B), IC50; format: cell-based, C57/BL6 mice; conditions: Mus musculus; KPC ID95, 96 hours of treatment; read-out: IC50 96 h mean ± SD
Description: (§3) FIG. 1. Pancreatic Cancer Cell lines features. A. Basal mRNA basal levels of EMT markers Vimentin and E-Cadherin in PDAC cell lines L3.6pl, BxPC3, COLO357, PANC28, PANC1, ASPC1 and MIAPACA2, in normal pancreatic cells HPDE cells, as well as in 2 established PDX-derived primary cells KPC ID11 and KPC ID95 were determined by qRT-PCR. […] Cells were grown for 48 h before preparation of cell lysates. Proteins were separated by SDS-PAGE and transferred to PVDF membranes using standard protocols. The membranes were probed with specific antibodies and Ponceau Red as total protein loading controls. Data represents representative results of at least three independent experiments.
as §1

[9] = test system: KPC ID11; assay: Cell proliferation assay (Sulforhodamine B), IC50; format: cell-based, C57/BL6 mice; conditions: Mus musculus; KPC ID11, 96 hours of treatment; read-out: IC50 96 h mean ± SD
Description: as §3, §1

[10] = test system: PANC1, ASPC1, PANC28 and BxPC3 cells; assay: Colony formation (clonogenic) assay; format: cell-based, human; conditions: high (IC25) and low (IC10) doses; all cell lines
Description: FIG. 3. VPA plus SIMVASTATIN antiproliferative and pro-apoptotic effects in PDAC cell lines. A. Synergistic inhibition of colony formation by the VPA/SIM in ASPC1, PANC28, PANC1 and BxPC3 cell lines. […] Upper panel: representative imagines of one experiment; in the lower panel: the bar graphs represent the values of absorbance of colonies after SRB colorimetric assay. Statistical significance was determined by a 2 tailed, unpaired Student's T test (*P<0.05;** P<0.01). B.-C. Synergistic inhibition of microtissues formation by the VPA and SIM alone and in combination. […] The graphics represent the number of viable cells in 3D cell culture based on quantitation of the ATP content. […] Statistical significance was determined by a 2 tailed, unpaired Student's T test (*P<0.05;** P<0.01) (C). […] Antiproliferative effect was assessed in all PDAC cell lines by sulforhodamine B colorimetric assay (see Methods) and expressed as percentage of control. B Apoptosis was evaluated by Caspase 3/7 activity assay, in PANC1, PANC28 and ASPC1 cells untreated or treated for 24 h with VPA/SIM and/or GEM/TAX at the low doses (VPA 0.5 mM, SIM 0,625 μM, GEM 25 nM and TAX 1.25 nM) and evaluated by luminescence assay. […] Expression of cleaved PARP in PANC1, PANC28 and ASPC1 cell lines untreated or treated with VPA/SIM and/or GEM/TAX for 24 h was evaluated by western blotting. βActin was used as loading control. […]

IC50 [1] [µM] | IC50 [2] [µM] | IC50 [3] [µM] | IC50 [4] [µM] | IC50 [6] [µM] | IC50 [7] [µM] | Structure (SMILES) | IC50 [5] [µM] | IC50 [8] [µM] | IC50 [9] [µM] | colonies formation [10]
12 ± 2.2 | 1.8 ± 0.06 | 3.25 ± 0.35 | 16.9 ± 4.3 | 14.4 ± 0.56 | 4.55 ± 0.07 | CC(C)c1c(C(=O)Nc2ccccc2)c(-c2ccccc2)c(-c2ccc(F)cc2)n1CC[C@@H](O)C[C@@H](O)CC(=O)O [ATOR, Atorvastatin] | 11 ± 3.2 | – | – | –
6 ± 0.5 | 2 ± 0.21 | 1.3 ± 0.07 | 11.2 ± 2.59 | 9.2 ± 0.9 | 1.5 ± 0.28 | CCC(C)(C)C(=O)O[C@H]1C[C@@H](C)C=C2C=C[C@H](C)[C@H](CC[C@@H]3C[C@@H](O)CC(=O)O3)[C@H]21 [SIM, Simvastatin] | 5.1 ± 0.8 | 1.05 ± 0.06 | 2.3 ± 0.48 | –
0.065 ± 0.00703 | 0.016 ± 0.0014 | 0.0224 ± 0.00056 | 0.0243 ± 0.00503 | 0.0137 ± 0.00275 | 0.0156 ± 0.00177 | Cc1[nH]c2ccccc2c1CCNCc1ccc(/C=C/C(=O)NO)cc1 [PAN, 2-(E)-N-hydroxy-3-[4 [[[2-(2-methyl-1H-indol-3-yl)ethyl]amino]methyl]phenyl]-2-propenamide] | > 0.16 | > 0.16 | > 0.16 | –
> 8 | 0.02 | 2.1 ± 0.14 | 0.9 ± 0.05 | 2.65 ± 0.07 | 2.2 ± 0.14 | Nc1ccccc1NC(=O)c1ccc(CNC(=O)OCc2cccnc2)cc1 [MS-275] | > 8 | > 8 | > 8 | –
1000 ± 100 | 750 ± 50 | 2800 ± 560 | 1820 ± 190 | 4500 ± 70 | 3500 ± 70 | CCCC(CCC)C(=O)O [VPA, 2-propylpentanoic acid] | 2200 ± 120 | 1600 ± 380 | 1800 ± 40 | inhibited colonies formation
– | – | – | – | 0.82 ± 0.1 | 0.74 ± 0.04 | O=C(CCCCCCC(=O)Nc1ccccc1)NO [VOR, Vorinostat] | – | – | – | –
8 ± 0.5 | 3 ± 0.4 | 4.05 ± 0.55 | 18.7 ± 6.95 | 28.2 ± 5.9 | 8.83 ± 2.4 | CC[C@H](C)C(=O)O[C@H]1C[C@@H](C)C=C2C=C[C@H](C)[C@H](CC[C@@H]3C[C@@H](O)CC(=O)O3)[C@H]21 [LOV, Lovastatin] | 12.1 ± 0.33 | – | – | –
